In the supplement of paper PMC8988213:
Structures can show the parent of a compound that is named as a salt.

How the values were obtained:
[1] = system: ID188 patient-derived PDAC 2D line (pre-FOLFIRINOX); assay: normalised area under dose-response curve (viability relative to DMSO, 7 doses up to 10 µM) (fraction (AUC)); higher = less sensitive (more viability retained); conditions: 72 h; top dose: 10 µM
How it was run: (§1)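 SelleckChem library compounds were tested for 72 h at seven concentrations (3-fold steps, highest 10 µM) on patient-derived 2D PDAC cells grown out from organoids. These cells had been robotically placed at 1,500–3,000 cells/well in 96-well plates and incubated overnight at 37°C with 5% CO2, and luminescence from CellTiter-Glo was recorded after 10 min. The GRmetrics R package gave the area under the dose-response curve from viability normalised to control wells.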

[2] = system: ID211 patient-derived PDAC 2D line (post-FOLFIRINOX); assay: as above; conditions: 72 h; top dose: 10 µM
How it was run: as §1

Compound | normalised area under dose-response curve [1] | normalised area under dose-response curve [2]
CC[C@H](NC(=O)[C@H](C)NC)C(=O)N1C[C@@H](O)C[C@H]1Cc1c(-c2[nH]c3cc(F)ccc3c2C[C@@H]2C[C@H](O)CN2C(=O)[C@H](CC)NC(=O)[C@H](C)NC)[nH]c2cc(F)ccc12 [Birinapant] | 0.315 | 1.02
Cn1cc(C2=C(c3cn(CCCSC(=N)N)c4ccccc34)C(=O)NC2=O)c2ccccc21 [Bisindolylmaleimide IX (Ro 31-8220 Mesylate)] | 0.942 | 0.788
O=C(O)C(=O)CBr [Bromopyruvic acid] | 0.992 | 0.834
CCOC(=O)Nc1cc(-c2ccc(C)c(NS(C)(=O)=O)c2)nn2c(C)nnc12 [Bromosporine] | 0.878 | 0.801
CS(=O)(=O)OCCCCOS(C)(=O)=O [Busulfan] | 0.948 | 0.814
Clc1ccc(C(c2c[nH]c3ccccc23)c2c[nH]c3ccccc23)cc1 [C-DIM12] | 0.92 | 0.897
O=C(Cc1cccc(OC(F)(F)F)c1)Nc1ccc(CCCCc2nnc(NC(=O)Cc3ccccn3)s2)nn1 [CB-839] | 0.596 | 0.597
Cc1cc2c(C(N)=O)cccc2n1-c1nc2c(c(NCc3ccccc3)n1)COCC2 [CB-5083] | 1.01 | 0.643
CCN1C(=O)CNc2ncc(-c3ccc(-c4nc[nH]n4)nc3C)nc21 [CC-115] | 0.718 | 0.7
COc1ccc(N2C(=O)/C(=C\c3ccc([N+](=O)[O-])s3)SC2=S)cc1 [CCF642] | 0.746 | 0.874
CCS(=O)(=O)N1CCC([C@@H](C)n2c(C)c(C(=O)NCc3c(OC)cc(C)[nH]c3=O)c3ccccc32)CC1 [CPI-169] | 0.924 | 0.874
Cc1sc2c(c1C)C(c1ccc(Cl)cc1)=N[C@@H](CC(N)=O)c1nnc(C)n1-2 [CPI-203] | 0.877 | 0.597
CC(C)c1c(-c2ccccc2)nc2c(C#N)c[nH]n2c1=O [CPI-455 HCl] | 0.972 | 0.898
O=C(O)CCCCC(CCSCc1ccccc1)SCc1ccccc1 (configuration not stated) [CPI-613] | 0.897 | 0.902
C#Cc1cccc(Nc2ncnc3cc(OC)c(OCCCCCCC(=O)NO)cc23)c1 [CUDC-101] | 0.827 | 0.765
O=C(O)c1cc(I)ccc1NC(=O)[C@H](Cc1ccccc1)NCc1ccccc1 [CW069] | 0.937 | 0.842
COc1cc2nccc(Oc3ccc(NC(=O)C4(C(=O)Nc5ccc(F)cc5)CC4)cc3)c2cc1OC [Cabozantinib malate (XL184)] | 0.585 | 0.78
CC(C)C[C@H](NC(=O)[C@H](CCc1ccccc1)NC(=O)CN1CCOCC1)C(=O)N[C@@H](Cc1ccccc1)C(=O)N[C@@H](CC(C)C)C(=O)[C@@]1(C)CO1 [Carfilzomib (PR-171)] | 0.126 | 0.0368
COc1cc2c(Oc3ccc4[nH]c(C)cc4c3F)ncnc2cc1OCCCN1CCCC1 [Cediranib (AZD2171)] | 0.927 | 0.83
Cc1ccc(-c2cc(C(F)(F)F)nn2-c2ccc(S(N)(=O)=O)cc2)cc1 [Celecoxib] | 0.935 | 0.892
Cc1cc(Nc2ncc(Cl)c(Nc3ccccc3S(=O)(=O)C(C)C)n2)c(OC(C)C)cc1C1CCNCC1 [Ceritinib (LDK378)] | 0.823 | 0.685
CN1C(=O)[C@@]23C[C@]4([C@]56C[C@@]78SS[C@@](CO)(C(=O)N7[C@H]5Nc5ccccc56)N(C)C8=O)c5ccccc5N[C@@H]4N2C(=O)[C@]1(CO)SS3 [Chaetocin] | 0.192 | 0.0212
NC(=O)c1ccc2nc(-c3ccc(Oc4ccc(Cl)cc4)cc3)[nH]c2c1 [Chk2 Inhibitor II (BML-277)] | 0.967 | 0.865
N.N.[Cl][Pt][Cl] [Cisplatin] | 0.95 | 0.86
O=C(c1ccc(F)c(F)c1Nc1ccc(I)cc1F)N1CC(O)([C@@H]2CCCCN2)C1 [Cobimetinib (GDC-0973, RG7420)] | 0.639 | 0.26
COc1cc2c(c(OC)c1OC)-c1ccc(OC)c(=O)cc1[C@@H](NC(C)=O)CC2 [Colchicine] | 0.562 | 0.589

Compound | normalised area under dose-response curve [1] | normalised area under dose-response curve [2]
O=P1(N(CCCl)CCCl)NCCCO1 (configuration not stated) [Cyclophosphamide Monohydrate] | 0.927 | 0.899
Nc1cccc(S(=O)(=O)N2CCCN(S(=O)(=O)c3ccc4c(c3)OCCO4)CC2)c1 [DASA-58] | 0.918 | 0.808
CCN1CCN(Cc2ccc(C(=O)Nc3ccc(C)c(Oc4ccc5c(c4)CC(=O)N5)c3)cc2C(F)(F)F)CC1 [DDR1-IN-1] | 0.934 | 0.908
CCOc1ccc(Cc2cc([C@@H]3O[C@H](CO)[C@@H](O)[C@H](O)[C@H]3O)ccc2Cl)cc1 [Dapagliflozin] | 0.943 | 0.913
Cc1nc(Nc2ncc(C(=O)Nc3c(C)cccc3Cl)s2)cc(N2CCN(CCO)CC2)n1 [Dasatinib hydrochloride] | 0.377 | 0.468
Nc1ncn([C@H]2C[C@H](O)[C@@H](CO)O2)c(=O)n1 [Decitabine] | 0.909 | 0.82
CCC[C@H](NC(=O)/C(C#N)=C/c1cccc(Br)n1)c1ccccc1 [Degrasyn (WP1130)] | 0.869 | 0.82
COc1cc2c(cc1OC)[C@@H]1C(=O)c3ccc4c(c3O[C@@H]1CO2)C=CC(C)(C)O4 [Deguelin] | 0.886 | 0.75
CN1CCN(c2ccc3nc(-c4c(N)c5c(F)cccc5[nH]c4=O)[nH]c3c2)CC1 [Dovitinib (TKI258) Lactate] | 1.01 | 0.904
COc1cccc2c1C(=O)c1c(O)c3c(c(O)c1C2=O)CC(O)(C(=O)CO)CC3OC1CC(N)C(O)C(C)O1 (configuration not stated) [Doxorubicin (Adriamycin) HCl] | 0.672 | 0.584
Cc1cc(Cl)ccc1OCCCC(=O)NO [Droxinostat] | 0.946 | 0.936
CS(=O)(=O)c1ccc(-c2cnc(NCc3ccco3)n3cnnc23)cc1 [EED226] | 0.955 | 0.846
CN(NC(=O)CC(=O)NN(C)C(=S)c1ccccc1)C(=S)c1ccccc1 [Elesclomol (STA-4783)] | 0.179 | 0.0189
NC(=O)/C(=C/n1cnc(-c2cc(C(F)(F)F)cc(C(F)(F)F)c2)n1)c1cncnc1 [Eltanexor (KPT-8602)] | 0.574 | 0.579
CC(C)(O)CNc1nc(Nc2ccnc(C(F)(F)F)c2)nc(-c2cccc(C(F)(F)F)n2)n1 [Enasidenib (AG-221)] | 0.97 | 0.875
Nc1ccccc1NC(=O)c1ccc(CNC(=O)OCc2cccnc2)cc1 [Entinostat (MS-275)] | 0.835 | 0.73
c1cn2cc(-c3ccc4cn[nH]c4c3)nc(Nc3ccc(N4CCOCC4)cc3)c2n1 [Entospletinib (GS-9973)] | 0.891 | 0.792
CN1CCN(c2ccc(C(=O)Nc3n[nH]c4ccc(Cc5cc(F)cc(F)c5)cc34)c(NC3CCOCC3)c2)CC1 [Entrectinib (RXDX-101)] | 0.813 | 0.706
CCOc1ccccc1-n1c(C(C)N2CCN(C(=O)COc3ccc(Cl)cc3)CC2)nc2ccccc2c1=O (configuration not stated) [Erastin] | 0.856 | 0.813
C#Cc1cccc(Nc2ncnc3cc(OCCOC)c(OCCOC)cc23)c1 [Erlotinib] | 0.902 | 0.7
COc1cc([C@@H]2c3cc4c(cc3[C@@H](O[C@@H]3O[C@@H]5CO[C@@H](C)O[C@H]5[C@H](O)[C@H]3O)[C@H]3COC(=O)[C@H]23)OCO4)cc(OC)c1O [Etoposide] | 0.946 | 0.853
Cc1cc([N+](=O)[O-])ccc1NS(=O)(=O)c1cc(Cl)ccc1Cl [FH535] | 0.91 | 0.922
CC1=C(C(=O)OC2CCCCC2)C(c2ccc([N+](=O)[O-])cc2)C2=C(CC(C)(C)CC2=O)N1 (configuration not stated) [FLI-06] | 0.936 | 0.792
O=c1[nH]cc(F)c(=O)[nH]1 [Fluorouracil (5-Fluoracil, 5-FU)] | 0.854 | 0.804
CC(C)n1c(/C=C/C(O)CC(O)CC(=O)O)c(-c2ccc(F)cc2)c2ccccc21 (configuration not stated) [Fluvastatin Sodium] | 0.87 | 0.807
